Drawing on patent publication US7414132B2, “Opioid receptor antagonists” (Eli Lilly and Company, priority 2003, dated 2008), this text covers Ki for seven compounds.

Common to all, as to format: biochemical
Assay [1] deals with delta opioid receptor (DOR) (Homo sapiens, UniProt P41143). Description: SPA-based GTP-γ-S binding assay, delta opioid receptor. Particulars: membranes, GTP-γ-[35S] SPA; antagonist assay with agonist DPDPE 30 nM; read-out: In Vitro Ki Delta. The method, then:
(§1) An SPA-based GTP-γ-S assay format was developed based on previous opioid (Emmerson et al., J. Pharm Exp Ther 278, 1121, 1996; Horng et al., Society for Neuroscience Abstracts, 434.6, 2000) and muscarinic (DeLapp et al., JPET 289, 946, 1999) assay formats. Membranes were re-suspended in 20 mM HEPES, 100 mM NaCl, 5 mM MgCl2, 1 mM DTT, and 1 mM EDTA. Fifty (50) […] of GTP-γ-[35S], compound, membrane suspension (20 microgram/well), and wheat germ agglutinin coated SPA beads (1 mg/well) were added to clear bottom 96 well assay plates. GDP ([…]) was added to the membrane solution prior to addition to the assay plates. Plates were sealed and incubated for four hours at room temperature then placed in a refrigerator overnight to allow the beads to settle. Signal stability at 4° C. was determined to be >60 hours. Plates were warmed to room temperature and counted in a Wallac Microbeta scintillation counter.
(§2) For antagonist assays, specific agonists were added at the following concentrations: (MOR) DAMGO 1 micromolar, (DOR) DPDPE 30 nM, (KOR) U69593 300 nM. Kb's were determined by Cheng-Prusoff equation (see Cheng and Prusoff, Biochem. Pharmacol. 22, 3099, 1973).
In general terms: Binding of GTPγS marks nucleotide exchange on a G protein.

For assay [2], the target named is mu opioid receptor (MOR) (Homo sapiens, UniProt P35372). Nature of the assay: SPA-based GTP-γ-S binding assay, mu opioid receptor. Particulars: membranes, GTP-γ-[35S] SPA; antagonist assay with agonist DAMGO 1 micromolar; read-out: In Vitro Ki Mu. On the procedure: as §1, §2
mu opioid receptor (MOR), sequence (P35372 whole entry): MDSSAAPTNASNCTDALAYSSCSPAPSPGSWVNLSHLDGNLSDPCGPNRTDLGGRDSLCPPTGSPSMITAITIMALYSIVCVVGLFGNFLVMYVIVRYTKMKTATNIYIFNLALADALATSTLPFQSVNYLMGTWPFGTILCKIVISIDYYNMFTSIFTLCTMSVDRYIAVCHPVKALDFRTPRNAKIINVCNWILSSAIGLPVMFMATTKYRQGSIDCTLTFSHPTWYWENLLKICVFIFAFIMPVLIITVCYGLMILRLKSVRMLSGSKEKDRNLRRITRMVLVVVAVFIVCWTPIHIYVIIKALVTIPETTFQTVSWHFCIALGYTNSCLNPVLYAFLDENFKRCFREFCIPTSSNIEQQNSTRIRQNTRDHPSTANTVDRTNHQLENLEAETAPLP
Assay [3] addresses kappa opioid receptor (KOR) (Homo sapiens, UniProt P41145). Description: SPA-based GTP-γ-S binding assay, kappa opioid receptor. Particulars: membranes, GTP-γ-[35S] SPA; antagonist assay with agonist U69593 300 nM; read-out: In Vitro Ki Kappa. The method, then:
as §1, §2

delta opioid receptor (DOR), sequence (P41143 whole entry): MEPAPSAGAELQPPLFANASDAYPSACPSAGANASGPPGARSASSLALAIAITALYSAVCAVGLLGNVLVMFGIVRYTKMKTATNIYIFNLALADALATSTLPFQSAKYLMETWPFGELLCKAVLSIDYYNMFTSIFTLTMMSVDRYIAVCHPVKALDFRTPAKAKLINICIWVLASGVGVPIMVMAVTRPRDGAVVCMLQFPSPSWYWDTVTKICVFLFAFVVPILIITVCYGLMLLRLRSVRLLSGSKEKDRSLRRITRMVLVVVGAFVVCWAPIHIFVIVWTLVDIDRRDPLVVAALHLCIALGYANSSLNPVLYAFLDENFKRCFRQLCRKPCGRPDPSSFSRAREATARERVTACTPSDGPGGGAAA
kappa opioid receptor (KOR), sequence (P41145 whole entry): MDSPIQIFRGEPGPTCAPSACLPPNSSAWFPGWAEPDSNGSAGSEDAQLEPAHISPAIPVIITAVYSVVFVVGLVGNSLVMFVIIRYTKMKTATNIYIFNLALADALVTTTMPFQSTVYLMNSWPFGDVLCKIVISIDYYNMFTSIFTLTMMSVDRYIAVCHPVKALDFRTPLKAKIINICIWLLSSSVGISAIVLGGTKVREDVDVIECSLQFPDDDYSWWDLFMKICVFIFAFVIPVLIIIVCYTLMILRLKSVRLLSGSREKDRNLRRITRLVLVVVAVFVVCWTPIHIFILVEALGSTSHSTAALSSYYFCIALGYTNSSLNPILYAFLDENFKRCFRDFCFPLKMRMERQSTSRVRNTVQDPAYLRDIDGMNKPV

In the case of `c1csc(CCNCc2ccc(Oc3ccc(C4=NCCN4)cn3)cc2)c1` [Example 5, {4-[5-(4,5-Dihydro-1H-imidazol-2-yl)-pyridin-2-yloxy]-benzyl}-(2-thiophen-2yl-ethyl)amine], the Ki turned out to be 370 nM in assay [1], 16.4 nM in assay [2] and 32.8 nM in assay [3].
For `CC(C)CCNCc1ccc(Oc2ccc(C(=N)N)cn2)cc1` [Example 3, 6-{4-[(3-Methyl-butylamino)-methyl]-phenoxy}-nicotinamidine] the same measures were 485 nM, 46.1 nM and 134 nM.
For `CC(C)CCNCc1ccc(Oc2ccc(/C(N)=N/C#N)cn2)cc1` [Example 8, N-Cyano-6-{4-[(3-methyl-butylamino)-methyl]-phenoxy}-nicotinamidine] the same measures were 178 nM, 7.83 nM and 43.2 nM.
As to `CC(C)CCNCc1ccc(Oc2ccc(C3=NCCN3)cn2)cc1` [Example 4, {4-[5-(4,5-Dihydro-1H-imidazol-2-yl)-pyridin-2-yloxy]-benzyl}-(3-methyl-butyl)-amine], the results for the Ki in assay [1], in assay [2] and in assay [3] were 120 nM, 9.5 nM and 34.1 nM, respectively.
Consider `CC(C)CCNCc1ccc(Oc2ccc(-c3ncc[nH]3)cn2)cc1` [Example 10, {4-[5-(1H-Imidazol-2-yl)-pyridin-2-yloxy]-benzyl}-(3-methyl-butyl)-amine], for which the Ki worked out at 214 nM in assay [1], 5.77 nM in assay [2] and 40.1 nM in assay [3].
For `CC(C)CCNCc1ccc(Oc2ccc(/C(N)=N/O)cn2)cc1` [Example 2, N-Hydroxy-6-{4-[(3-methyl-butylamino)-methyl]-phenoxy}-nicotinamidine], in that order: 269 nM, 43.4 nM and 117 nM.
Turning to `CC(C)CCNCc1ccc(Oc2ccc3c(N)noc3c2)cc1` [Example 11, 6-{4-[(3-Methyl-butylamino)-methyl]-phenoxy}-benzo[d]isoxazol-3-ylamine], the Ki in assay [1] was found to be 81.1 nM; in assay [2], 5.81 nM; in assay [3], 47.5 nM.
